SMILES strings stand for the structures. ≈ marks a conversion by molar mass, not a printed value.

The first series concerns the target T1, Vasopressin V1b receptor (Homo sapiens, UniProt P47901).
T1 sequence (P47901 whole entry): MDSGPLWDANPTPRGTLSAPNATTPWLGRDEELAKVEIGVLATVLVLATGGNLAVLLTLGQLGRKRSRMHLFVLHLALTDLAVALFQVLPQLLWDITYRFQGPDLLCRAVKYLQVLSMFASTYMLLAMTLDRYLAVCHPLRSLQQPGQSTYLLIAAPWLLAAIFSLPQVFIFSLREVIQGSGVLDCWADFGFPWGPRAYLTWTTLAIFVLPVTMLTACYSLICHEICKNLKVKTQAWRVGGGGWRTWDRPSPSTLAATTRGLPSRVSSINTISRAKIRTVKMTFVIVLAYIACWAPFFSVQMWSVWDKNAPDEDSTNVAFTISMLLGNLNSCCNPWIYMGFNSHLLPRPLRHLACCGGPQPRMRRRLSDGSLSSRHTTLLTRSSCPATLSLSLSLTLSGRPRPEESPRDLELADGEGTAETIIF
In words: Antagonist activity at human vasopressin V1b receptor by cell based beta-lactamase reporter gene assay. The class given is functional. A general note: A reporter such as luciferase makes a cellular process visible.
Turning to `CCOCc1nnc(-c2ccc(OCC)c(C)c2)n1-c1ccc(OC)nc1`, the Ki (as a rule, the dissociation constant of the complex between target and ligand, obtained from inhibition or displacement) is more than 10000 nM.

For a further series, the target named is T2, Vasopressin V1b receptor (Homo sapiens) (UniProt P47901).
T2 sequence (whole entry): T1 sequence (P47901 whole entry)
In words: Binding affinity to human vasopressin V1b receptor at 10 uM relative to control.
For `COc1ccc(-n2c(C)nnc2-c2cnc(-c3ccc(F)cc3C)cn2)cn1`, the Activity was less than 20%.
The same measure, in the same setting: then `CCOc1ccc(-c2nnc(COC)n2-c2ccc(OC)nc2)cc1Cl`, with less than 20%.
Turning to `COCc1nnc(-c2cnc(-c3ccc(C#N)cc3C)cn2)n1-c1ccc(OC)nc1`, the Activity was less than 20%.
Still for that read-out and setting: the value for `CCOc1ccc(-c2nnc(COCCOC)n2-c2ccc(OC)nc2)cc1C` was less than 20%.
Still for that read-out and setting: then `CCOc1ccc(-c2nnc(COC)n2-c2ccc(OC)nc2)cc1C`, with less than 20%; and `CCOc1ccc(-c2nnc(COC)n2-c2ccc(OC)nc2)cc1C(F)(F)F`, with less than 20%; and `CCOc1ccc(-c2nnc(Cn3nccn3)n2-c2ccc(OC)nc2)cc1C`, with less than 20%.
On the same count and under the same terms, then `CCOc1ccc(S(=O)(=O)N(CC(=O)N/N=C2\C(=O)Nc3ccccc32)c2ccccc2)cc1`, with less than 20%; and `CCOCc1nnc(-c2ccc(OCC)c(C)c2)n1-c1ccc(OC)nc1`, with less than 20%; and `CCOc1ccc(-c2nnc(C)n2-c2ccc(OC)nc2)cc1C`, with less than 20%.

A further series deals with T3, Oxytocin receptor (Homo sapiens, UniProt P30559).
T3 sequence (P30559 whole entry): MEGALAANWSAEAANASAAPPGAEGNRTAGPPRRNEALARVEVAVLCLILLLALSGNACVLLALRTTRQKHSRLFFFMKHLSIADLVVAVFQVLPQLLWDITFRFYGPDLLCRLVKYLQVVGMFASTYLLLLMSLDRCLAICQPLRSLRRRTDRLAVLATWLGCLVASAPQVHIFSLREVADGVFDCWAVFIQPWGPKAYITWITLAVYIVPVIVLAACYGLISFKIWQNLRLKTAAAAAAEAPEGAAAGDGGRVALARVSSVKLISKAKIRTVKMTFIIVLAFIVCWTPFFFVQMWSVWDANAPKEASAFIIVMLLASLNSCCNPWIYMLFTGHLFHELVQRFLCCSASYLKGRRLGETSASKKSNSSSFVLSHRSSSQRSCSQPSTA
In words: Antagonist activity at human oxytocin receptor by cell based beta-lactamase reporter gene assay. The class given is functional.
`CCOc1ccc(-c2nnc(COC)n2-c2ccc(OC)nc2)cc1Cl` displayed an inhibition constant Ki of 144 nM.
Same read-out and setting: the value for `CCOc1ccc(-c2nnc(COCCOC)n2-c2ccc(OC)nc2)cc1C` was 19 nM; that for `CCOc1ccc(-c2nnc(COC)n2-c2ccc(OC)nc2)cc1C` was 102 nM; that for `CCOc1ccc(-c2nnc(COC)n2-c2ccc(OC)nc2)cc1C(F)(F)F` was 190 nM.
Compound `CCOc1ccc(-c2nnc(Cn3nccn3)n2-c2ccc(OC)nc2)cc1C` gave a Ki of 45 nM.
Same read-out and setting: then `CCOc1ccc(S(=O)(=O)N(CC(=O)N/N=C2\C(=O)Nc3ccccc32)c2ccccc2)cc1`, with 6 nM; and `CCOCc1nnc(-c2ccc(OCC)c(C)c2)n1-c1ccc(OC)nc1`, with 28 nM.
On the same count and under the same terms, then `CCOc1ccc(-c2nnc(C)n2-c2ccc(OC)nc2)cc1C`, with 143 nM.

The target in a further series is Vasopressin V2 receptor (Homo sapiens, UniProt P30518). In words: Antagonist activity at human vasopressin V2 receptor by cell based beta-lactamase reporter gene assay. The class given is functional.
Sequence of Vasopressin V2 receptor (P30518 whole entry): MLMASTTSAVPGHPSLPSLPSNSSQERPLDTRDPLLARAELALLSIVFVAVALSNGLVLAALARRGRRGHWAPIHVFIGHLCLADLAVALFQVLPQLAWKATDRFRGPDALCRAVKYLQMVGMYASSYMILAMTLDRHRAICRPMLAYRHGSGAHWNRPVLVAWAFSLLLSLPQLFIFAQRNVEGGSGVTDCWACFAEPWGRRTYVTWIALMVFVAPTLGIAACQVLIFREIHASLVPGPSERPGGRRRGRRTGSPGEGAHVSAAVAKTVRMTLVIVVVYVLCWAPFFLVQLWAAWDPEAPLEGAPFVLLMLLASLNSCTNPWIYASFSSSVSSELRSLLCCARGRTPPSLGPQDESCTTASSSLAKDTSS
Regarding `CCOc1ccc(-c2nnc(COC)n2-c2ccc(OC)nc2)cc1Cl`, the Ki is more than 10000 nM.
`CCOc1ccc(-c2nnc(COCCOC)n2-c2ccc(OC)nc2)cc1C`: affinity was put at a Ki of 6400 nM.
Same read-out and setting: then `CCOc1ccc(-c2nnc(COC)n2-c2ccc(OC)nc2)cc1C`, with more than 10000 nM.
In turn, `CCOc1ccc(-c2nnc(COC)n2-c2ccc(OC)nc2)cc1C(F)(F)F` showed a Ki of more than 10000 nM.
Take `CCOc1ccc(-c2nnc(Cn3nccn3)n2-c2ccc(OC)nc2)cc1C`: the Ki was determined as 1000 nM.
`CCOCc1nnc(-c2ccc(OCC)c(C)c2)n1-c1ccc(OC)nc1` came in with a Ki of more than 10000 nM.
Still for that read-out and setting: then `CCOc1ccc(-c2nnc(C)n2-c2ccc(OC)nc2)cc1C`, with more than 10000 nM.

Tested on in the next series: not listed separately
In words: Intrinsic clearance in human liver microsomes. The class given is ADME, Microsome. On the technique in general: Microsomes from liver hold many membrane-bound enzymes, among them those of drug oxidation.
As for `CCOCc1nnc(-c2ccc(OCC)c(C)c2)n1-c1ccc(OC)nc1`, the microsomal CLint – broadly, the capacity of the preparation to metabolise the compound, expressed as a volume cleared per time – came out at 12 µL/min/mg.

A further series deals with Vasopressin V1a receptor (Homo sapiens, UniProt P37288). In words: Antagonist activity at human vasopressin V1a receptor by cell based beta-lactamase reporter gene assay. Type of series: functional.
Sequence of Vasopressin V1a receptor (P37288 whole entry): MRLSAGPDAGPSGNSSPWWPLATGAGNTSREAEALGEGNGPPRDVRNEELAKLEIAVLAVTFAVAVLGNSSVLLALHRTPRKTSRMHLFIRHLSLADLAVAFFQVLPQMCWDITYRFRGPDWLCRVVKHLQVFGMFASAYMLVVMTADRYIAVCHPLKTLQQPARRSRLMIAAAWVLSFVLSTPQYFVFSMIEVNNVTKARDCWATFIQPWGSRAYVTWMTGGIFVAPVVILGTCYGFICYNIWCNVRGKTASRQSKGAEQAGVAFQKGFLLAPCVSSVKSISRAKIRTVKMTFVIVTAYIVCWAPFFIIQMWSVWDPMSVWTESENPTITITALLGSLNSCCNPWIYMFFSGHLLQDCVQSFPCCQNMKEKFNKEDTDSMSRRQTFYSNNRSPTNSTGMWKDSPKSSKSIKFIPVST
Turning to `CCOc1ccc(-c2nnc(COC)n2-c2ccc(OC)nc2)cc1Cl`, the Ki stood at 2900 nM.
For the compound `CCOc1ccc(-c2nnc(COCCOC)n2-c2ccc(OC)nc2)cc1C`, affinity was put at a Ki of 1700 nM. Compared with the last compound, the Ki is about 1.7-fold lower.
`CCOc1ccc(-c2nnc(COC)n2-c2ccc(OC)nc2)cc1C` showed a Ki of 3800 nM. Against the preceding compound, the Ki is about 2.2-fold higher.
On the same count and under the same terms, the value for `CCOc1ccc(-c2nnc(COC)n2-c2ccc(OC)nc2)cc1C(F)(F)F` was more than 10000 nM; that for `CCOc1ccc(-c2nnc(Cn3nccn3)n2-c2ccc(OC)nc2)cc1C` was 214 nM; that for `CCOCc1nnc(-c2ccc(OCC)c(C)c2)n1-c1ccc(OC)nc1` was 594 nM.
The same measure, in the same setting: the value for `CCOc1ccc(-c2nnc(C)n2-c2ccc(OC)nc2)cc1C` was more than 10000 nM.

Tested on in a further series: not listed separately
As to the kind of experiment: Aqueous solubility at pH 7.4. Type of series: physicochemical.
`CCOc1ccc(-c2nnc(COC)n2-c2ccc(OC)nc2)cc1C`: the solubility (commonly how much of the substance goes into solution per volume) was 170 µg/mL (≈ 480 µM).
On to `CCOCc1nnc(-c2ccc(OCC)c(C)c2)n1-c1ccc(OC)nc1`, for which the solubility was 344 µg/mL (≈ 934 µM).

Values taken from ChEMBL document CHEMBL1144202, “Triazole oxytocin antagonists: identification of aryl ether replacements for a biaryl substituent” (Bioorg Med Chem Lett, 2008).
